Laboratory results: US20150183737A1, “COMPOSITIONS AND METHODS FOR SUBSTRATE-SELECTIVE INHIBITION OF ENDOCANNABINOID OXYGENATION” (Vanderbilt University, priority 2012, published 2015)

Experiments:
purified murine COX-2 = molecular target: T1, purified murine COX-2 (Mus musculus, UniProt Q05769); assay: Inhibition of mCOX-2 dependent oxygenation of 2-AG and AA by profens in vitro; type: biochemical; parameters: made in house; host or cells: insect cells; conditions: achiral profens; for inhibition at 10 µM: at 10 μM inhibitor, AA 5 μM, read-out: AA % Inhibition
T1 sequence (Q05769 18-604): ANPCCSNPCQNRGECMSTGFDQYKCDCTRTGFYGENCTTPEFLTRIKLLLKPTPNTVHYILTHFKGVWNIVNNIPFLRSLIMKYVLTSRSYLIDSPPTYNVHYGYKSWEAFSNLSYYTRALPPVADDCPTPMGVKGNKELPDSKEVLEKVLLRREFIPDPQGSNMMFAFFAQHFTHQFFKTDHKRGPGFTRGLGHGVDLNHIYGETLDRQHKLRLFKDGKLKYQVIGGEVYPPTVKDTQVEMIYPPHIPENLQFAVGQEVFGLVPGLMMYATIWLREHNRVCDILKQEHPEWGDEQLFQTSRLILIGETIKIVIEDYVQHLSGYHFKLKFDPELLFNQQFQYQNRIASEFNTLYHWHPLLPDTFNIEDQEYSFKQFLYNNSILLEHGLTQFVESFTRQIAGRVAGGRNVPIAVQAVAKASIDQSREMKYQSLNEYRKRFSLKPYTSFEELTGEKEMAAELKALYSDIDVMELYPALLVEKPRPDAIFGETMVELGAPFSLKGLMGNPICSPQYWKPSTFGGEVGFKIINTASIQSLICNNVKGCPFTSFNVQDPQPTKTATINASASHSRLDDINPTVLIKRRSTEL
Procedure: Desired concentrations of inhibitor in DMSO or blank (DMSO) were incubated with mCOX-2 (40 nM) for 3 minutes in 100 mM Tris-HCl with 0.5 mM phenol, pH 8.0 at 37° C. After pre-incubation of enzyme and inhibitor, 5 μM of AA or 2-AG was added at 37° C. Thirty seconds later, the reaction was quenched with 200 μL of ice-cold ethyl acetate containing 0.5% acetic acid (v/v) and 1 μM PGE2-d4 and PGE2-G-d5. The solution was then vortexed and the aqueous layer frozen. The organic layer was removed and evaporated to near-dryness under nitrogen. The samples were reconstituted in 1:1 MeOH:H2O and chromatographed using a LUNA® C18(2) column (50 2 mm, 3 μm; Phenomenex, Torrance, Calif., United States of America). […] Analyte peak areas were normalized to the appropriate internal standard to determine the amount of product formation, and inhibition was determined by normalization to a DMSO control.

[1] = molecular target: T2, COX-2 in RAW 264.7 macrophages (Mus musculus, UniProt Q05769); assay: RAW cells assay: oxygenation of 2-AG and AA; type: cell-based
T2 construct: endogenous in cells; host or cells: RAW 264.7 macrophages stimulated with LPS (and GM-CSF / interferon γ where described)
T2 sequence (Q05769 18-604): T1 sequence (Q05769 18-604)
Procedure: Two hours after stimulation, varying doses of inhibitor were added to the cell media and 6 hr after stimulation the media were collected and analyzed by LC-MS-MS for prostaglandin levels.
The cells were then stimulated overnight with 20 ng/ml of granulocyte-macrophage colony-stimulating factor. The media was replaced in the morning with DMEM with GLUTAMAX® and the cells were stimulated with 100 ng/ml lipopolysaccharide and 20 units/ml interferon γ. Two hours after stimulation varying doses of inhibitor were added to the cell media and 6 hours after stimulation the media was collected and extracted in acidified ethyl acetate spiked with deuterated internal standards. The organic layer was dried down under a stream of nitrogen gas and reconstituted in 1:1 water:methanol and analyzed by LC-MS/MS for prostaglandin levels using the same instrumentation, column, solvents and conditions as described for the in vitro assay above.

[2] = In vivo mouse assay: plasma levels; parameters: species or system C57BL/6 mice; conditions: for concentration at 72 h: single 10 mg/kg i.p. injection

Row | SMILES | inhibition at 10 µM (purified murine COX-2) | IC50 (purified murine COX-2; murine COX-2 40 nM, 3 min preincubation, 2-AG 5 μM, 37° C., 30 s, mean ± SD, read-out: 2-AG IC50) | inhibition at 25 µM ([1]; RAW264.7, at 25 μM compound) | IC50 ([1]; conversion of 2-AG to PGE2-G/PGD2-G) | Average plasma concentration ([2]; 10 mg/kg i.p. at 0, 8, 24, 32, 48 and 56 hr, sixteen hr after the last injection) | half-life ([2]; male, C57BL/6, mouse, plasma, intraperitoneal, 10 mg/kg, read-out: Half-life (t1/2) in mouse plasma) | concentration at 72 h ([2]; 1 hr) | concentration at 72 h ([2]; 2 hr) | concentration at 72 h ([2]; 4 hr) | inhibition at 5 µM ([1]; RAW264.7, at 5 μM compound)
1 | CC(C)(C(=O)O)c1ccc(-c2ccccc2)c(F)c1 [Compound 4a, 2-(2-fluoro-[1,1′-biphenyl]-4-yl)-2-methylpropanoic acid] | 5% | 1.1 µM | 40% | 5.2 µM |  |  |  |  |  | 
2 | O=C(O)Cc1ccc(-c2ccccc2)c(F)c1 [Compound 3a, 2-(2-fluoro-[1,1′-biphenyl]-4-yl)acetic acid] | 7% |  |  |  | not detected | 2 to 3 h | 68 µM | 50 µM | 6 µM | 60%
